Measurements reported in publication PMC2923755, “Thermolability of mutant MMACHC protein in the vitamin B12-responsive cblC disorder” (Molecular Genetics and Metabolism, 2010).
Residue numbers refer to the chain shown, from its start. Values joined by “and” are separate entries in the source; they are usually repeats but may differ in a detail not shown here. Equal values may be shown once. “Also recorded” adds a separate entry of the source.

Assays:
MMACHC-R161Q [1] = target: T1, MMACHC-R161Q (Homo sapiens, UniProt Q9Y4U1, R161Q); design: method as in PMID 19700356; conditions: cited from earlier work; for cobalamin binding: recombinant protein, in words
T1 construct: His-tag (N, cleaved yes); made in house; host or cells: E. coli BL21 DE3
T1 sequence (Q9Y4U1 1-282 R161Q): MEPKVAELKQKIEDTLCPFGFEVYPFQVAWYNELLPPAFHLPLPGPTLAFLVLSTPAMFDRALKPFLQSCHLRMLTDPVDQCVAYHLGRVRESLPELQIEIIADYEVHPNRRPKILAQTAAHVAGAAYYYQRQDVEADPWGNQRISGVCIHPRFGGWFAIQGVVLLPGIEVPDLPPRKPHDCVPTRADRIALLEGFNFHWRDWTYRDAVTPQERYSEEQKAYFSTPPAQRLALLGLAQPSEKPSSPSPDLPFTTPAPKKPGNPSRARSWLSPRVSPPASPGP

MMACHC-G147D = tested on: MMACHC-G147D; design: method as in PMID 19700356; conditions: recombinant protein, in words; cited from earlier work
MMACHC-R161Q [2] = target: T1, MMACHC-R161Q; assay: Differential scanning fluorimetry (DSF), stabilization by cobalamins; type: binding; conditions: DSF; for ΔTm max: Tm at 50 μM ligand minus Tm at 0 μM ligand
Protocol: (§1) DSF was performed and analyzed as described in Niesen et al., with minor modifications. Purified MMACHC proteins were diluted to 0.1 mg/ml (3 μM) in buffer (10 mM HEPES pH 7.5, 0.5 M NaCl, 5% glycerol) with 1:1000 Sypro Orange (Invitrogen) and run in triplicate. The proteins were heated from 5 to 75 °C with a ramp rate of 1 °C/min in a thermocycler (Bio-rad C1000 Thermocycler, CFX96 Real-time system). All graphs were normalized so that minimum fluorescence was set to 0 and maximum fluorescence set to 1. […] Final graphs and AC50’s were generated using Kadeidagraph 4.0 software (Synergy Software, Reading, PA). AC50’s were determined by fitting the ΔTm vs. ligand concentration curves to the equation ΔTm = ΔTm max[S]/(AC50 + [S]) where ΔTm is the change in melting temperature (Tm[protein + ligand] − Tm[protein]), ΔTm max is the maximal change in Tm at saturating (50 μM) ligand concentration and [S] is the ligand concentration.
(§2) Wild-type (MMACHC-wt) and mutant (MMACHC-R161Q) MMACHC were expressed and purified to >95% purity, with His-tag removed, as judged by SDS–PAGE (Fig. 2A). In order to investigate the thermostability of MMACHC we used DSF, a method that measures protein stability and ligand-induced changes in stability [[20,21]]. DSF uses an environmentally sensitive dye, such as Sypro orange, to monitor protein-unfolding caused by heat denaturation. As the protein unfolds, the dye, which has a higher fluorescence quantum yield in nonpolar environments than in aqueous media, binds to hydrophobic regions of the protein, causing a large increase in fluorescence [[22,23]]. Protein stability is expressed as the melting point of the protein (Tm), that is, the transition midpoint of the fluorescence curve, corresponding to the temperature at which half of the protein molecules are folded and half are unfolded. […] Even lower was the stability of MMACHC-R161Q (Tm = 37.1 ± 0.7 °C) (Fig. 2B). The difference in Tm was small but nonetheless significant (p < 0.01). A second difference between the wild-type and mutant proteins was the shape of the unfolding curves, with the unfolding of the mutant protein showing high cooperativity indicating a two-state unfolding mechanism while the unfolding of the wild-type protein stretched over a larger temperature range and comprised two phases (Fig. 2B; also Fig. 3A at 0 μM OHCbl).

MMACHC-wt [3] = target: T2, MMACHC-wt (Homo sapiens, UniProt Q9Y4U1); assay: as above; type: binding; conditions: for ΔTm max: Tm at 50 μM ligand minus Tm at 0 μM ligand
T2 construct: His-tag (N, cleaved yes); made in house; host or cells: E. coli BL21 DE3
T2 sequence (Q9Y4U1 1-282): T1 sequence (Q9Y4U1 1-282 R161Q) with Q161R
Protocol: as §1, §2

[4] = UV-visible absorption spectra of free cobalamin; type: physicochemical; conditions: for α/β-Peak: nm; for γ-Peak: wavelength
Protocol: (§3) To determine base-on or base-off binding, 5 μM of the appropriate cobalamin or cobinamde in buffer (100 mM Tris, pH 7.0), was incubated in the dark with 400 μl total of 50 μM MMACHC protein (wild-type or R161Q), prepared in the same buffer, or alone, for 5 min at room temperature. In order to retain the high amounts of protein necessary for these experiments, the His-tag (wt and R161Q) or GST-tag (wt protein) was left on. Absorption spectrum measurements were carried out using a MOS-250 spectrometer and recorded using Bio-Kine 32 v4.20 software.
(§4) In order to determine whether the R161Q mutation interferes with the ability of MMACHC to support this transition, we examined the UV–visible absorption spectra for the proteins bound to AdoCbl, as an example of an alkylcobalamin, as well as for the proteins bound to CNCbl and OHCbl. Each cobalamin was added at a concentration of […] (Fig. 5). To determine whether the cobalamin was base-on or base-off, in the case of CNCbl both base-on and base-off spectra were determined for the free vitamin, as previously reported [[12,14]]. […] Confirming our earlier data, GST-tagged MMACHC-wt bound CNCbl in the base-off state (Table 2). […] Both MMACHC-wt and MMACHC-R161Q bound AdoCbl in the base-off state (Fig. 5; Table 2). […] Finally, neither MMACHC-wt nor MMACHC-R161Q modified OHCbl binding, which retained the base-on profile regardless of the MMACHC species present (Fig. 5; Table 2).

MMACHC-wt [5] = target: T2, MMACHC-wt; design: method as in PMID 19700356; conditions: published Kd; unit printed in b1 only; cited from earlier work
His-MMACHC-R161Q [6] = target: T3, His-MMACHC-R161Q (Homo sapiens, UniProt Q9Y4U1, R161Q); assay: UV-visible absorption spectra, base-on/base-off binding; conditions: 5 μM cobalamin, 50 μM protein, pH 7.0; for α/β-Peak: nm; for γ-Peak: wavelength
T3 construct: made in house; host or cells: E. coli BL21 DE3
T3 sequence (Q9Y4U1 1-282 R161Q): T1 sequence (Q9Y4U1 1-282 R161Q)
Protocol: […] In order to retain the high amounts of protein necessary for these experiments, the His-tag (wt and R161Q) or GST-tag (wt protein) was left on. Absorption spectrum measurements were carried out using a MOS-250 spectrometer and recorded using Bio-Kine 32 v4.20 software.
as §4

GST-MMACHC-wt [7] = target: T4, GST-MMACHC-wt (Homo sapiens, UniProt Q9Y4U1); assay: as above; conditions: 5 μM cobalamin, 50 μM protein, pH 7.0; for α/β-Peak: nm; for γ-Peak: wavelength
T4 construct: made in house
T4 sequence (Q9Y4U1 1-282): T1 sequence (Q9Y4U1 1-282 R161Q) with Q161R
Protocol: as §3, §4

His-MMACHC-wt = target: T5, His-MMACHC-wt (Homo sapiens, UniProt Q9Y4U1); assay: as above; conditions: 5 μM cobalamin, 50 μM protein, pH 7.0; for α/β-Peak: nm; for γ-Peak: wavelength
T5 construct: made in house; host or cells: E. coli BL21 DE3
T5 sequence (Q9Y4U1 1-282): T1 sequence (Q9Y4U1 1-282 R161Q) with Q161R
Protocol: as §3, §4

His-MMACHC-R161Q [8] = target: T3, His-MMACHC-R161Q; assay: as above; conditions: 20 μM CNCbl, pH 7.0
GST-MMACHC-wt [9] = target: T4, GST-MMACHC-wt; design: method as in PMID 19700356; conditions: earlier demonstration; cited from earlier work
[10] = half-maximal effective ligand concentration for stabilization, 3 μM protein, fit of ΔTm vs ligand concentration

Compound	cobalamin binding (MMACHC-R161Q [1])	cobalamin binding (MMACHC-G147D)	ΔTm max (MMACHC-R161Q [2])	ΔTm max (MMACHC-wt [3])	α/β-Peak ([4]; base-on)	γ-Peak ([4]; base-on)	Base-on/off (His-MMACHC-R161Q [6])	α/β-Peak (His-MMACHC-R161Q [6])	γ-Peak (His-MMACHC-R161Q [6])	Base-on/off (GST-MMACHC-wt [7])	α/β-Peak (GST-MMACHC-wt [7])	γ-Peak (GST-MMACHC-wt [7])	Base-on/off (His-MMACHC-wt)	α/β-Peak (His-MMACHC-wt)	γ-Peak (His-MMACHC-wt)	further results
C/C1=C2/[N-][C@H]([C@H](CC(N)=O)[C@@]2(C)CCC(=O)NC[C@@H](C)OP(=O)([O-])O[C@H]2[C@@H](O)[C@@H](n3cnc4cc(C)c(C)cc43)O[C@@H]2CO)[C@]2(C)N=C(/C(C)=C3N=C(/C=C4N=C1[C@@H](CCC(N)=O)C\4(C)C)[C@@H](CCC(N)=O)[C@]\3(C)CC(N)=O)[C@@H](CCC(N)=O)[C@]2(C)CC(N)=O.[Co+3].[OH-] [OHCbl, Hydroxocobalamin]	wild-type affinity	unable to bind	4 °C and 3.7 ± 0.1 °C	8 °C and 7.9 ± 0.6 °C	525 nm	350 nm	base-on and On	535 nm	354	On	522 nm	355	base-on and On	532 nm	356	AC50 (MMACHC-R161Q [2]; [10]): 7 µM and 6.6 µM; AC50 (MMACHC-wt [3]; [10]): 3 µM; Kd (MMACHC-wt [5]): 6 µM and 5.7 µM
Cyanocobalamin [CNCbl]	poorly; also recorded: impaired	unable to bind	1 °C and 1.1 ± 0.6 °C	3.4 ± 0.6 °C	551 nm	360 nm	shifted incompletely towards full base-off binding; also recorded: On/Off	540 nm	359	base-off and Off	530 nm	357	Off	531 nm	358	Kd (MMACHC-R161Q [1]; published Kd, unit printed in b35 only): 20 µM; Base-on/off (His-MMACHC-R161Q [8]): Off; α/β-Peak (His-MMACHC-R161Q [8]; nm): 531 nm; γ-Peak (His-MMACHC-R161Q [8]; wavelength): 359; binding conformation (base-on/off) (GST-MMACHC-wt [9]): base-off; α/β-Peak ([4]; base-off): 529 nm; γ-Peak ([4]; base-off): 355 nm
